Assay results taken from patent US7612064B2, “Sulfopyrroles” (Takeda Pharmaceutical Company Limited, priority 2003, dated 2009).

What was measured:
[1] = system: HeLa; experiment: MTS proliferation assay; assay type: cell-based, human; settings: 72 h
Summary of the method: (§1)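 Compounds at final 10/3/1/0.3 μM (added in complete medium, ≤5% DMSO); 72 h, culture conditions; + MTS, 3 h; A492.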

[2] = system: Jurkat; experiment: MTS proliferation assay; assay type: cell-based, human; settings: 72 h
Summary of the method: as §1

[3] = system: MRC5; experiment: MTS proliferation assay; assay type: cell-based; settings: MRC5, 72 h
Summary of the method: as §1

[4] = Hoechst 33342 nuclear staining; assay type: cell-based; settings: for Hoechst 33342 nuclear staining score, H460: H460 cells; for Hoechst 33342 nuclear staining score, HeLa: HeLa cells; for Hoechst 33342 nuclear staining score, Jily: Jily cells; for Hoechst 33342 nuclear staining score, Jurkat: Jurkat cells; for Hoechst 33342 nuclear staining score, MRC5: MRC5 cells; for Hoechst 33342 nuclear staining score, PBLs: key: 0: no activity; 1: weak activity comprising less than 50% of the cells; 2: strong activity comprising more than 50% of the cells;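 for all read-outs here: apoptotic nuclei scored 0 none 1 weak under 50% of cells 2 strong over 50% of cells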
Summary of the method: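 Cells were plated in 96 well tissue culture plates in 80 μl complete medium, with 3-5*10^3 cells per well for adherent lines and 8-10*10^3 for suspension lines. Adherent cells spread for 24 h before treatment, while suspension cells were treated right after seeding. Compounds were added in 20 μl complete medium containing max 5% DMSO.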

Row | SMILES | IC50 [1] | IC50 [2] | IC50 [3] | Hoechst 33342 nuclear staining score, H460 ([4]; conc 0.1) | Hoechst 33342 nuclear staining score, H460 ([4]; conc 0.3) | Hoechst 33342 nuclear staining score, H460 ([4]; conc 1) | Hoechst 33342 nuclear staining score, H460 ([4]; conc 3) | Hoechst 33342 nuclear staining score, HeLa ([4]; conc 0.1) | Hoechst 33342 nuclear staining score, HeLa ([4]; conc 0.3) | Hoechst 33342 nuclear staining score, HeLa ([4]; conc 1) | Hoechst 33342 nuclear staining score, HeLa ([4]; conc 3) | Hoechst 33342 nuclear staining score, Jily ([4]; conc 0.1) | Hoechst 33342 nuclear staining score, Jily ([4]; conc 0.3) | Hoechst 33342 nuclear staining score, Jily ([4]; conc 1) | Hoechst 33342 nuclear staining score, Jily ([4]; conc 3) | Hoechst 33342 nuclear staining score, Jurkat ([4]; conc 0.1) | Hoechst 33342 nuclear staining score, Jurkat ([4]; conc 0.3) | Hoechst 33342 nuclear staining score, Jurkat ([4]; conc 1) | Hoechst 33342 nuclear staining score, Jurkat ([4]; conc 3) | Hoechst 33342 nuclear staining score, MRC5 ([4]; conc 0.1) | other results
1 | NC(=O)c1cncc(-c2cc(-c3ccc4c(c3)OCO4)n(S(=O)(=O)c3cccc(Cl)c3)c2)c1 [Example 75] | > 1 µM | > 1 µM | > 1 µM | 0 | 0 | 0 | 0 | 0 | 0 | 0 | 0 | 0 | 0 | 0 | 0 | 0 | 0 | 0 | 0 | 0 | Hoechst 33342 nuclear staining score, MRC5 ([4]; conc 0.3): 0; Hoechst 33342 nuclear staining score, MRC5 ([4]; conc 1): 0; Hoechst 33342 nuclear staining score, MRC5 ([4]; conc 3): 0; Hoechst 33342 nuclear staining score, PBLs ([4]; conc 0.1): 0; Hoechst 33342 nuclear staining score, PBLs ([4]; conc 0.3): 0; Hoechst 33342 nuclear staining score, PBLs ([4]; conc 1): 0; Hoechst 33342 nuclear staining score, PBLs ([4]; conc 3): 0
2 | COc1cc(-c2cc(-c3cccnc3)cn2S(=O)(=O)c2ccc(OC(F)(F)F)cc2)cc(OC)c1OC [Example 77] | > 1 µM | > 1 µM | > 1 µM | 0 | 0 | 0 | 1 (weak activity comprising less than 50% of the cells) | 0 | 0 | 0 | 0 | 0 | 0 | 0 | 1 (weak activity comprising less than 50% of the cells) | 0 | 0 | 0 | 2 (strong activity comprising more than 50% of the cells) | 0 | Hoechst 33342 nuclear staining score, MRC5 ([4]; conc 0.3): 0; Hoechst 33342 nuclear staining score, MRC5 ([4]; conc 1): 0; Hoechst 33342 nuclear staining score, MRC5 ([4]; conc 3): 0; Hoechst 33342 nuclear staining score, PBLs ([4]; conc 0.1): 0; Hoechst 33342 nuclear staining score, PBLs ([4]; conc 0.3): 0; Hoechst 33342 nuclear staining score, PBLs ([4]; conc 1): 0; Hoechst 33342 nuclear staining score, PBLs ([4]; conc 3): 0

Further lines, with some results ahead:

Row | IC50 [1] | IC50 [2] | SMILES | IC50 [3] | Hoechst 33342 nuclear staining score, H460 ([4]; conc 0.1) | Hoechst 33342 nuclear staining score, H460 ([4]; conc 0.3) | Hoechst 33342 nuclear staining score, H460 ([4]; conc 1) | Hoechst 33342 nuclear staining score, H460 ([4]; conc 3) | Hoechst 33342 nuclear staining score, HeLa ([4]; conc 0.1) | Hoechst 33342 nuclear staining score, HeLa ([4]; conc 0.3) | Hoechst 33342 nuclear staining score, HeLa ([4]; conc 1) | Hoechst 33342 nuclear staining score, HeLa ([4]; conc 3) | Hoechst 33342 nuclear staining score, Jily ([4]; conc 0.1) | Hoechst 33342 nuclear staining score, Jily ([4]; conc 0.3) | Hoechst 33342 nuclear staining score, Jily ([4]; conc 1) | Hoechst 33342 nuclear staining score, Jily ([4]; conc 3) | Hoechst 33342 nuclear staining score, Jurkat ([4]; conc 0.1) | Hoechst 33342 nuclear staining score, Jurkat ([4]; conc 0.3) | Hoechst 33342 nuclear staining score, Jurkat ([4]; conc 1) | Hoechst 33342 nuclear staining score, Jurkat ([4]; conc 3) | Hoechst 33342 nuclear staining score, MRC5 ([4]; conc 0.1) | other results
3 | > 1 µM | < 1 µM | COc1cc(-c2cc(CNc3ccc(S(N)(=O)=O)cc3)cn2S(=O)(=O)c2ccc(C)cc2)cc(OC)c1OC [Example 70] | > 1 µM | 0 | 0 | 0 | 2 (strong activity comprising more than 50% of the cells) | 0 | 0 | 0 | 0 | 0 | 0 | 0 | 2 (strong activity comprising more than 50% of the cells) | 0 | 0 | 2 (strong activity comprising more than 50% of the cells) | 2 (strong activity comprising more than 50% of the cells) | 0 | Hoechst 33342 nuclear staining score, MRC5 ([4]; conc 0.3): 0; Hoechst 33342 nuclear staining score, MRC5 ([4]; conc 1): 0; Hoechst 33342 nuclear staining score, MRC5 ([4]; conc 3): 2 (strong activity comprising more than 50% of the cells); Hoechst 33342 nuclear staining score, PBLs ([4]; conc 0.1): 0; Hoechst 33342 nuclear staining score, PBLs ([4]; conc 0.3): 0; Hoechst 33342 nuclear staining score, PBLs ([4]; conc 1): 0; Hoechst 33342 nuclear staining score, PBLs ([4]; conc 3): 0
4 | < 1 µM | < 1 µM | COc1cc(-c2cc(CNc3ccc(N4CCOCC4)cc3)cn2S(=O)(=O)c2ccc(C)cc2)cc(OC)c1OC [Example 71] | < 1 µM | 0 | 0 | 2 (strong activity comprising more than 50% of the cells) | 2 (strong activity comprising more than 50% of the cells) | 0 | 0 | 2 (strong activity comprising more than 50% of the cells) | 2 (strong activity comprising more than 50% of the cells) | 0 | 0 | 2 (strong activity comprising more than 50% of the cells) | 2 (strong activity comprising more than 50% of the cells) | 0 | 2 (strong activity comprising more than 50% of the cells) | 2 (strong activity comprising more than 50% of the cells) | 2 (strong activity comprising more than 50% of the cells) | 0 | Hoechst 33342 nuclear staining score, MRC5 ([4]; conc 0.3): 0; Hoechst 33342 nuclear staining score, MRC5 ([4]; conc 1): 2 (strong activity comprising more than 50% of the cells); Hoechst 33342 nuclear staining score, MRC5 ([4]; conc 3): 2 (strong activity comprising more than 50% of the cells); Hoechst 33342 nuclear staining score, PBLs ([4]; conc 0.1): 0; Hoechst 33342 nuclear staining score, PBLs ([4]; conc 0.3): 0; Hoechst 33342 nuclear staining score, PBLs ([4]; conc 1): 0; Hoechst 33342 nuclear staining score, PBLs ([4]; conc 3): 0
5 | > 1 µM | > 1 µM | O=S(=O)(c1cccc(Cl)c1)n1cc(CNc2ccc(-n3ccnc3)cc2)cc1-c1ccc2c(c1)OCO2 [Example 74] | > 1 µM | 0 | 0 | 0 | 0 | 0 | 0 | 0 | 0 | 0 | 0 | 0 | 0 | 0 | 0 | 0 | 0 | 0 | Hoechst 33342 nuclear staining score, MRC5 ([4]; conc 0.3): 0; Hoechst 33342 nuclear staining score, MRC5 ([4]; conc 1): 0; Hoechst 33342 nuclear staining score, MRC5 ([4]; conc 3): 0; Hoechst 33342 nuclear staining score, PBLs ([4]; conc 0.1): 0; Hoechst 33342 nuclear staining score, PBLs ([4]; conc 0.3): 0; Hoechst 33342 nuclear staining score, PBLs ([4]; conc 1): 0; Hoechst 33342 nuclear staining score, PBLs ([4]; conc 3): 0
